Experimental data taken from PubChem BioAssay (NCI).
“And” between values parts separate entries of the source, which are not always exact repeats. Equal entries are not always repeated.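 Test compounds were applied to cells in 96-well plates for 48 hours at 5 doses. Here, GI50 denotes the concentration required for 50% inhibition of growth. At the TGI there is no net growth.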

Assays:
Test in all cases: inhibition of tumour cell growth, NCI panel, 48 h
DU-145 prostate = tested on: DU-145 prostate
HCT-15 colon = tested on: HCT-15 colon
HS 578T breast = tested on: HS 578T breast
K-562 leukemia = tested on: K-562 leukemia
LOX IMVI melanoma = tested on: LOX IMVI melanoma
MALME-3M melanoma = tested on: MALME-3M melanoma
MDA-MB-231 breast = tested on: MDA-MB-231 breast
SK-MEL-2 melanoma = tested on: SK-MEL-2 melanoma
SW-620 colon = tested on: SW-620 colon
U251 CNS = tested on: U251 CNS

Structure (SMILES) | GI50 (DU-145 prostate) [µM] | TGI (DU-145 prostate) | GI50 (HCT-15 colon) | TGI (HCT-15 colon) | GI50 (HS 578T breast) [µM] | TGI (HS 578T breast) | GI50 (K-562 leukemia) | TGI (K-562 leukemia) | GI50 (LOX IMVI melanoma) | TGI (LOX IMVI melanoma) | GI50 (MALME-3M melanoma) [µM] | TGI (MALME-3M melanoma) | GI50 (MDA-MB-231 breast) [µM] | TGI (MDA-MB-231 breast) | GI50 (SK-MEL-2 melanoma) | TGI (SK-MEL-2 melanoma) | GI50 (SW-620 colon) | TGI (SW-620 colon) | GI50 (U251 CNS) | TGI (U251 CNS)
N#CCC1(n2cc(-c3ncnc4[nH]ccc34)cn2)CN(C2CCN(C(=O)c3ccnc(C(F)(F)F)c3F)CC2)C1 | > 100 | > 100 µM | > 100 µM | > 100 µM | 28.1 | > 100 µM | 99.2 µM | > 100 µM | 96.8 µM | > 100 µM | > 100 | > 100 µM | 46.6 | > 100 µM | > 100 µM | > 100 µM | 83.5 µM | > 100 µM | > 100 µM | > 100 µM
N/C(=N\C(N)=N\c1nc2ccccc2s1)c1cnccn1 | 4.34 | > 100 µM | 3.12 µM | > 100 µM | 4.7 | > 100 µM | 3.69 µM | > 100 µM | 3.47 µM | > 100 µM | 2.27 | 5.66 µM | 3.91 | > 100 µM | 1.95 µM | 4.63 µM | 3.68 µM | > 100 µM | 2.96 µM | 14.9 µM
O=NN(CCCl)C(=O)NC1CCCCC1 | – | 132 µM | 16.8 µM and 54.7 µM | 33.5 µM and 103 µM and 115 µM | – | 104 µM | 10.9 µM and 36.6 µM | 43.9 µM and 228 µM and 106 µM | 14.2 µM and 27.9 µM | 52 µM and 56.9 µM and 74.8 µM | 18 | 37 µM and 150 µM and 112 µM | – | 57 µM | 22.7 µM and 194 µM | 49.4 µM and 159 µM and 272 µM | 18.3 µM and 44.1 µM | 45.9 µM and 108 µM and 98.7 µM | 15.8 µM and 64.7 µM | 51.2 µM and 103 µM and 173 µM
COc1ccc(OCC(O)CN2CCN(c3ccc(Cl)cc3)CC2)cc1 (centres undefined) | > 100 | > 100 µM | > 100 µM | > 100 µM | > 100 | > 100 µM | > 100 µM | > 100 µM | > 100 µM | > 100 µM | 59.7 | > 100 µM | 66.1 | > 100 µM | > 100 µM | > 100 µM | > 100 µM | > 100 µM | 79.3 µM | > 100 µM
CCN1CCN(c2nc(NNC(=O)c3ccccc3)nc(N3CCN(C(c4ccccc4)c4ccccc4)CC3)n2)CC1 | 8.11 | 26.5 µM | 2.3 µM | 5.84 µM | 3.3 | 22.3 µM | 1.77 µM | 4.32 µM | 1.82 µM | 3.35 µM | 1.7 | 3.48 µM | 2.7 | 7.55 µM | 2.4 µM | 5.67 µM | 2.3 µM | 5.88 µM | 3.05 µM | 10.5 µM
O=C(Nc1ccc(C(F)(F)F)cc1[N+](=O)[O-])c1cccnc1 | – | > 100 µM | – | > 100 µM | – | > 100 µM | – | > 100 µM | – | > 100 µM | – | 8.32 µM | – | > 100 µM | – | > 100 µM | – | > 100 µM | – | > 100 µM
COc1ccc(/C(CC2OC(=O)c3ccccc32)=N\NC(N)=O)cc1 (centres undefined) | – | > 100 µM | – | > 100 µM | – | > 100 µM | – | > 100 µM | – | > 100 µM | – | > 100 µM | – | > 100 µM | – | > 100 µM | – | > 100 µM | – | > 100 µM
CC1OC(OC2C(O[C@H]3CC[C@@]4(C)C(=CC[C@H]5[C@@H]6C[C@@H]7O[C@]8(CC[C@@H](C)CO8)[C@@H](C)[C@@H]7[C@@]6(C)CC[C@@H]54)C3)OC(CO)C(OC3OC(CO)C(O)C3O)C2O)C(O)C(O)C1O (some centres undefined) | – | 2.26 µM and 2.15 µM | 0.621 µM | 1.99 µM and 1.94 µM | – | 1.78 µM and 2.24 µM | – | 50 µM | 0.21 µM | 1.19 µM and 0.517 µM | 0.324 | 1.61 µM and 0.891 µM | 0.497 | 1.6 µM and 1.65 µM | 1.46 µM | 1.82 µM and 2.78 µM | 0.195 µM | 2.57 µM and 0.419 µM | 0.325 µM | 1.44 µM
CC1=C2[C@@H](CC1)[C@]1(C)O[C@@](C3CC3)(C[C@H]1OC(=O)CO)[C@H]2OC(=O)/C=C/c1ccccc1 | 16.9 | 30.9 µM | 13.6 µM | 29.3 µM | < 0.0153 | 0.845 µM | 16.1 µM | 46 µM | 15.1 µM | 31.8 µM | 15.6 | 32.8 µM | 18.3 | 37.6 µM | 18.1 µM | 36.1 µM | 19.1 µM | 36.7 µM | 15.6 µM | 29.3 µM
Nc1ncnc2c1nc(Cl)n2C1OC(CO)C(O)C1O (centres undefined) | – | > 93.3 µM | – | > 100 µM | – | > 100 µM | – | > 100 µM | – | > 100 µM | – | > 100 µM | – | > 100 µM | – | > 100 µM | – | > 100 µM | – | > 100 µM
COc1cccc(C2C(C#N)=C(N)Oc3cc4c(cc32)OCO4)c1 (centres undefined) | 0.0845 | 2.78 µM | 0.0525 µM | > 43.5 µM | 0.0316 | 25.5 µM | 0.04 µM | > 100 µM | 0.234 µM | 17.2 µM | 0.0501 | 31.4 µM | 0.695 | > 52.1 µM | 0.0301 µM | 6.77 µM | 0.0369 µM | > 63.2 µM | 0.0449 µM | 12.1 µM
O=c1[nH]c2ccc([N+](=O)[O-])c(Cl)c2c2ccccc12 | – | 11.7 µM | – | > 100 µM | – | > 100 µM | – | > 100 µM | – | > 100 µM | – | 27.6 µM | – | 23.6 µM | – | 24.7 µM | – | 17.9 µM | – | 18 µM
C=C(Cn1c2ccccc2c(=O)c2ccccc21)c1ccc(C(=O)Nc2ccccc2N)cc1 | > 100 | > 100 µM | 3.48 µM | > 100 µM | > 100 | > 100 µM | 1.35 µM | > 100 µM | 50.4 µM | > 100 µM | 6.45 | > 100 µM | 3.72 | 56 µM | > 100 µM | > 100 µM | 6.56 µM | > 100 µM | 8.1 µM | > 100 µM
O=C(OC[C@@H]1CO1)c1cccc2c(=O)c3ccccc3[nH]c12 | 0.335 | 1.29 µM | 0.307 µM | 3.36 µM | 0.499 | 3.78 µM | 0.24 µM | > 100 µM | 0.0807 µM | 0.48 µM | 0.472 | 1.76 µM | 0.393 | 2.29 µM | 0.251 µM | 0.595 µM | 0.0649 µM | 1.16 µM | 0.279 µM | 3.69 µM
CN(C)c1ccc(C2CC(C)(O)Oc3cc4c(cc32)OCO4)cc1 (centres undefined) | – | > 100 µM | – | > 100 µM | – | > 100 µM | – | > 100 µM | – | > 100 µM | – | > 100 µM | – | > 100 µM | – | 63.8 µM | – | > 100 µM | – | > 100 µM
O=c1nc2[nH]c3c(-c4n[nH]c(=O)[nH]c4=O)cccc3c2n[nH]1 | > 100 | > 100 µM | > 100 µM | > 100 µM | > 100 | > 100 µM | > 100 µM | > 100 µM | > 100 µM | > 100 µM | > 100 | > 100 µM | > 100 | > 100 µM | > 100 µM | > 100 µM | > 100 µM | > 100 µM | > 100 µM | > 100 µM
